The results in this text go back to ChEMBL document CHEMBL4393720, “Design, synthesis and biological evaluation of bromophenol-thiazolylhydrazone hybrids inhibiting the interaction of translation initiation factors eIF4E/eIF4G as multifunctional agents for cancer treatment” (Eur J Med Chem, 2019).

pIC50: −log10 of the molar value.

One experiment deals with U-87 MG. The experiment is described as follows: Antiproliferative activity against human U87MG cells assessed as inhibition of cell growth incubated for 48 hrs by MTT assay. Type of experiment: functional, cell-based, U-87MG ATCC.
The subject of the next experiment is HepG2. The experiment is described as follows: Antiproliferative activity against human HepG2 cells assessed as inhibition of cell growth incubated for 48 hrs by MTT assay. The conditions noted are these: HepG2, 48 h. The experiment is classed as functional, cell-based.
Another experiment relates to HUVEC. The experiment is described as follows: Antiproliferative activity against human HUVEC cells assessed as inhibition of cell growth incubated for 48 hrs by MTT assay. Type of experiment: cell-based.
The next experiment deals with Caco-2. The experiment is described as follows: Antiproliferative activity against human Caco2 cells assessed as inhibition of cell growth incubated for 48 hrs by MTT assay. Type of experiment: functional, cell-based. To be noted: Caco-2, 48 h.
The test system of another experiment is A549. In words: Antiproliferative activity against human A549 cells assessed as inhibition of cell growth incubated for 48 hrs by MTT assay. Type of experiment: functional, cell-based. To be noted: A549, 48 h.

For `COc1cc(/C=N/Nc2nc(-c3ccc(F)c(F)c3)cs2)cc(Br)c1OC`, the pIC50 in the experiment with U-87 MG was 4.58; in the experiment with HepG2 it was 4.65; in the experiment on HUVEC, less than 4.00; in the experiment on Caco-2 it was 4.67; in the experiment on A549, 4.68.
For `COc1cc(/C=N/Nc2nc(-c3ccccc3)cs2)cc(Br)c1OC`, the pIC50 with U-87 MG was 4.13; in the experiment with HepG2, 4.17; with HUVEC, less than 4.00; in the experiment on Caco-2, 4.19; in the experiment on A549, 4.40.
On the same counts, the results for `O=C(O)/C(Cc1ccccc1[N+](=O)[O-])=N\Nc1nc(-c2ccc(Cl)c(Cl)c2)cs1` are 4.12, 4.43, 4.17, 4.35 and 4.23.
On the same counts, the results for `Fc1ccc(/C=N/Nc2nc(-c3cc(C(F)(F)F)cc(C(F)(F)F)c3)cs2)cc1F` are 4.53, 4.78, less than 4.00, 4.20 and 5.21.
On the same counts, the results for `COc1cc(/C=N/Nc2nc(-c3cccc(Br)c3)cs2)c(Br)c(Br)c1OC` are 4.56, less than 4.00, less than 4.00, less than 4.00 and 4.43.
On to `COc1cc(/C=N/Nc2nc(-c3ccc(C(F)(F)F)cc3)cs2)c(Br)c(Br)c1OC`, for which the pIC50 was less than 4.00 in the experiment on U-87 MG; less than 4.00 with HepG2; less than 4.00 in the experiment on HUVEC; less than 4.00 in the experiment on Caco-2; 4.75 in the experiment on A549.
Consider `COc1cc(/C=N/Nc2nc(-c3ccc(C(F)(F)F)cc3)cs2)cc(Br)c1OC`, for which the pIC50 in the experiment with U-87 MG was 4.39; in the experiment with HepG2, 4.51; in the experiment on HUVEC it was less than 4.00; in the experiment on Caco-2 it was 4.18; in the experiment with A549, 4.74.
Take `COc1cc(/C=N/Nc2nc(-c3ccccc3)cs2)c(Br)c(Br)c1OC`: the pIC50 with U-87 MG was 4.70; with HepG2, 4.47; in the experiment with HUVEC, less than 4.00; in the experiment with Caco-2, 4.58; in the experiment on A549, 4.82.
On the same counts, the results for `Fc1ccc(/C=N/Nc2nc(-c3ccccc3)cs2)cc1F` are less than 4.00, less than 4.00, less than 4.00, 4.68 and 4.04.
On the same counts, the results for `COc1cc(/C=N/Nc2nc(-c3ccc(Br)cc3)cs2)c(Br)c(Br)c1OC` are less than 4.00, less than 4.00, less than 4.00, less than 4.00 and 4.34.
On the same counts, the results for `COc1cc(/C=N/Nc2nc(-c3cccc(Br)c3)cs2)cc(Br)c1OC` are 4.06, 4.18, less than 4.00, 4.36 and 4.25.
Turning to `COc1cc(/C=N/Nc2nc(-c3cc(C(F)(F)F)cc(C(F)(F)F)c3)cs2)c(Br)c(Br)c1OC`, the negative-log IC50 (pIC50) with U-87 MG, in the experiment with HepG2, in the experiment on HUVEC, with Caco-2 and in the experiment with A549 was less than 4.00 in each case.
Consider `Fc1ccc(/C=N/Nc2nc(-c3cccc(Br)c3)cs2)cc1F`, for which the pIC50 with U-87 MG was 4.40; in the experiment on HepG2, 4.78; in the experiment on HUVEC, less than 4.00; with Caco-2 it was 4.76; in the experiment with A549, 4.79.
On the same counts, the results for `COc1cc(/C=N/Nc2nc(-c3cc(C(F)(F)F)cc(C(F)(F)F)c3)cs2)cc(Br)c1OC` are less than 4.00, less than 4.00, less than 4.00, less than 4.00 and 4.03.
Turning to `COc1cc(/C=N/Nc2nc(-c3ccc(Br)cc3)cs2)cc(Br)c1OC`, the pIC50 was 4.55 in the experiment with U-87 MG; 4.19 in the experiment on HepG2; less than 4.00 with HUVEC; 4.44 in the experiment on Caco-2; 4.28 with A549.
Regarding `COc1ccccc1-c1csc(N/N=C/c2ccc(F)c(F)c2)n1`, the pIC50 is 4.39 in the experiment with U-87 MG; less than 4.00 with HepG2; less than 4.00 with HUVEC; 4.60 with Caco-2; 4.21 in the experiment with A549.
As for `Fc1ccc(/C=N/Nc2nc(-c3ccc(F)c(F)c3)cs2)cc1F`, the pIC50 is 4.36 in the experiment with U-87 MG; 4.58 with HepG2; 4.22 in the experiment with HUVEC; 4.85 in the experiment on Caco-2; 5.07 with A549.
As for `COc1ccccc1-c1csc(N/N=C/c2cc(OC)c(OC)c(Br)c2Br)n1`, the pIC50 in the experiment on U-87 MG was less than 4.00; with HepG2, less than 4.00; with HUVEC, less than 4.00; with Caco-2, less than 4.00; in the experiment with A549 it was 4.07.
For the molecule `COc1cc(/C=N/Nc2nc(-c3ccc(F)c(F)c3)cs2)c(Br)c(Br)c1OC`, the pIC50 in the experiment on U-87 MG was 4.71; with HepG2, 4.30; in the experiment on HUVEC it was 4.26; with Caco-2, 4.64; in the experiment on A549, 5.08.
On the same counts, the results for `COc1ccccc1-c1csc(N/N=C/c2cc(Br)c(OC)c(OC)c2)n1` are less than 4.00, 4.09, less than 4.00, less than 4.00 and 4.02.
On the same counts, the results for `Fc1ccc(/C=N/Nc2nc(-c3ccc(Br)cc3)cs2)cc1F` are less than 4.00, less than 4.00, less than 4.00, 4.36 and less than 4.00.
